Assay results taken from patent publication US20230355536A1, “OZONE-BASED LOW TEMPERATURE SILICON OXIDE COATING FOR PHARMACEUTICAL APPLICATIONS” (Applied Materials, Inc., priority 2022, published 2023).

How the values were obtained:
Assay type in all cases: physicochemical
[1] = FTIR spectrum of API particles before and after coating process; settings: coated versus uncoated API particles
Description: FIGS. 2A-2B (FIG. 2B is a zoom-in image of FIG. 2A) show the FTIR spectrum of the coated and uncoated acetaminophen API particles.
FIGS. 6A-6B (FIG. 6B is a zoom-in image of FIG. 6A) show the FTIR spectrum of the coated and uncoated theophylline API particles.
FIGS. 9A-9B (FIG. 9B is a zoom-in image of FIG. 9A) show the FTIR spectrum of the coated and uncoated API-1 particles.

[2] = HPLC analysis of API integrity after ozone treatment; settings: ozone generated with oxygen flow rate of 10, 30 and 50 sccm
Experimental: To test whether ozone treatment will affect the integrity of the API, the API (acetaminophen) was treated with ozone at various concentrations. Here, ozone was created by an ozone generator with various oxygen flow rates. The lower the oxygen flow rate, the high the ozone concentration is. Specifically, the API (acetaminophen) was treated with ozone generated with an oxygen flow rate of 10 sccm, 30 sccm and 50 sccm. FIGS. 8A-8D show the HPLC analysis of the API (acetaminophen) after ozone treatment. […] As shown in FIGS. 8A-8D, there were no new peaks (impurity) generated after ozone exposure with as low as 10 sccm oxygen flow rate (highest O3 concentration)

[3] = Wetting/dispersity of particles in DI water; settings: acetaminophen particles dissolved into DI water
Experimental: The coated API (acetaminophen) particles were dissolved into DI water to test the wetting/dispersity properties of these particles.
As a control group, API (acetaminophen) was also treated with silane to apply a monolayer of silane.

| change in FTIR signals before and after the coating process [1] | new peaks (impurity) in HPLC after ozone exposure [2] | wetting/dispersity [3] | Compound |
| --- | --- | --- | --- |
| no significant change | – | – | Cn1c(=O)c2[nH]cnc2n(C)c1=O [theophylline, reference compound] |
| no significant change | no new peaks | poor wetting/dispersity | CC(=O)Nc1ccc(O)cc1 [acetaminophen] |
